According to ChEMBL document CHEMBL1201862, “PubChem BioAssay data set” (2004):
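Test compounds were applied to cells in 96-well plates for 48 hours at 5 doses. GI50 marks 50% less growth.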 The source made the active and inactive calls. Cut-off read from the data, not from the text of the source: active = GI50 up to about 1.1 µM and inactive = higher.

Tests used:
Assay in all cases: NCI-60 cell line screen, 48 h
786-0 = tested on: 786-0
BT-549 = tested on: BT-549
CAKI-1 = tested on: CAKI-1
DU-145 = tested on: DU-145
HCT-116 = tested on: HCT-116
K562 = tested on: K562
LOX IMVI = tested on: LOX IMVI
MDA-N = tested on: MDA-N
NCI-H23 = tested on: NCI-H23
PC-3 = tested on: PC-3
RPMI-8226 = tested on: RPMI-8226
SF-268 = tested on: SF-268
SF-295 = tested on: SF-295
SNB-19 = tested on: SNB-19
SNB-75 = tested on: SNB-75
SR = tested on: SR
TK-10 = tested on: TK-10
U-251 = tested on: U-251
UACC-62 = tested on: UACC-62

| Compound | GI50 (786-0) | GI50 (BT-549) | GI50 (CAKI-1) | GI50 (DU-145) | GI50 (HCT-116) | GI50 (K562) | GI50 (LOX IMVI) | GI50 (MDA-N) | GI50 (NCI-H23) | GI50 (PC-3) | GI50 (RPMI-8226) | GI50 (SF-268) | GI50 (SF-295) | GI50 (SNB-19) | GI50 (SNB-75) | GI50 (SR) | GI50 (TK-10) | GI50 (U-251) | GI50 (UACC-62) |
| --- | --- | --- | --- | --- | --- | --- | --- | --- | --- | --- | --- | --- | --- | --- | --- | --- | --- | --- | --- |
| NCCc1c[nH]c2ccc(OC(=O)C(=O)O)cc12 | > 100 µM (inactive) | > 100 µM (inactive) | > 100 µM (inactive) | > 100 µM (inactive) | > 100 µM (inactive) | > 100 µM (inactive) | > 100 µM (inactive) | > 100 µM (inactive) | > 100 µM (inactive) | > 100 µM (inactive) | > 100 µM (inactive) | > 100 µM (inactive) | > 100 µM (inactive) | > 100 µM (inactive) | > 100 µM (inactive) | > 100 µM (inactive) | > 100 µM (inactive) | > 100 µM (inactive) | > 100 µM (inactive) |
| CC1C(c2ccc3c(c2)OCO3)c2cc3c(cc2OC1N1CCOCC1)OCO3 (stereo not given) | 31.6 µM (inactive) | 20 µM (inactive) | 15.2 µM (inactive) | 27.8 µM (inactive) | 16 µM (inactive) | 7.41 µM (inactive) | 20.9 µM (inactive) | 6.28 µM (inactive) | 26.5 µM (inactive) | 25.9 µM (inactive) | 21 µM (inactive) | 31.3 µM (inactive) | 24 µM (inactive) | 16.4 µM (inactive) | 32.8 µM (inactive) | 10.6 µM (inactive) | 29.1 µM (inactive) | 19.1 µM (inactive) | 20.3 µM (inactive) |
| COc1cc(C2c3cc4c(cc3OC(N3CCCC3)C2C)OCO4)cc(OC)c1OC (stereo not given) | 0.729 µM (active) | 0.515 µM (active) | 0.664 µM (active) | 0.571 µM (active) | 0.481 µM (active) | 0.361 µM (active) | 0.766 µM (active) | 0.167 µM (active) | 0.548 µM (active) | 0.524 µM (active) | 1.08 µM (active) | 2.34 µM (inactive) | 0.303 µM (active) | 1.21 µM (inactive) | 0.443 µM (active) | 0.32 µM (active) | 0.938 µM (active) | 0.644 µM (active) | 0.509 µM (active) |
| CC(Cn1c(=O)oc2ccccc21)N(C)C (stereo not given) | > 100 µM (inactive) | > 100 µM (inactive) | > 100 µM (inactive) | > 100 µM (inactive) | > 100 µM (inactive) | > 100 µM (inactive) | > 100 µM (inactive) | > 100 µM (inactive) | > 100 µM (inactive) | > 100 µM (inactive) | > 100 µM (inactive) | > 100 µM (inactive) | > 100 µM (inactive) | > 100 µM (inactive) | > 100 µM (inactive) | > 100 µM (inactive) | > 100 µM (inactive) | > 100 µM (inactive) | > 100 µM (inactive) |
| Cc1cc(N2CCOCC2)nc2ccc(Cc3ccc4nc(N5CCOCC5)cc(C)c4c3)cc12 | 32 µM (inactive) | 60.7 µM (inactive) | > 100 µM (inactive) | > 100 µM (inactive) | 21.9 µM (inactive) | 27 µM (inactive) | 32.4 µM (inactive) | 36.6 µM (inactive) | 54 µM (inactive) | 56.4 µM (inactive) | 20.2 µM (inactive) | > 100 µM (inactive) | 78.7 µM (inactive) | 49.9 µM (inactive) | 35.2 µM (inactive) | 28.3 µM (inactive) | 29.4 µM (inactive) | 26.7 µM (inactive) | 45.8 µM (inactive) |
| CC(C)/C=N\N1C(N)=C(C#N)C(C#N)(C#N)C1C(C)C (stereo not given) | 60.7 µM (inactive) | 35.2 µM (inactive) | 85.1 µM (inactive) | 40 µM (inactive) | 47.9 µM (inactive) | 42.1 µM (inactive) | 31.8 µM (inactive) | 22.4 µM (inactive) | 64.9 µM (inactive) | 55.3 µM (inactive) | 37.8 µM (inactive) | 56.6 µM (inactive) | > 100 µM (inactive) | > 100 µM (inactive) | 42.8 µM (inactive) | 29.3 µM (inactive) | > 100 µM (inactive) | 39.6 µM (inactive) | 26.4 µM (inactive) |
| O=c1[nH]nc(-c2ccc([N+](=O)[O-])cc2)[nH]1 | > 100 µM (inactive) | 19.1 µM (inactive) | > 100 µM (inactive) | > 100 µM (inactive) | > 100 µM (inactive) | > 100 µM (inactive) | > 100 µM (inactive) | > 100 µM (inactive) | > 100 µM (inactive) | > 100 µM (inactive) | > 100 µM (inactive) | > 100 µM (inactive) | > 100 µM (inactive) | > 100 µM (inactive) | > 100 µM (inactive) | > 100 µM (inactive) | > 100 µM (inactive) | > 100 µM (inactive) | > 100 µM (inactive) |
| N#CC(NCCc1ccccc1)c1ccccc1 (stereo not given) | > 100 µM (inactive) | > 100 µM (inactive) | > 100 µM (inactive) | > 100 µM (inactive) | > 100 µM (inactive) | > 10 µM (inactive) | > 100 µM (inactive) | > 100 µM (inactive) | > 100 µM (inactive) | > 100 µM (inactive) | > 100 µM (inactive) | > 100 µM (inactive) | > 100 µM (inactive) | > 100 µM (inactive) | > 100 µM (inactive) | > 100 µM (inactive) | > 100 µM (inactive) | > 100 µM (inactive) | > 100 µM (inactive) |
| COc1cc(C(=O)O[C@@H]2[C@@H](OC(=O)c3cc(OC)c(OC)c(OC)c3)[C@@H](OC)O[C@@H]3CO[C@@H](c4ccccc4)O[C@@H]23)cc(OC)c1OC | > 100 µM (inactive) | 50.4 µM (inactive) | > 100 µM (inactive) | > 100 µM (inactive) | > 100 µM (inactive) | > 100 µM (inactive) | > 100 µM (inactive) | > 100 µM (inactive) | > 100 µM (inactive) | > 100 µM (inactive) | > 100 µM (inactive) | > 100 µM (inactive) | > 100 µM (inactive) | > 100 µM (inactive) | 29.6 µM (inactive) | > 100 µM (inactive) | > 100 µM (inactive) | > 100 µM (inactive) | > 100 µM (inactive) |
| CCOC(=O)Cc1nc2sc(S(N)(=O)=O)nn2c1Br | 23.2 µM (inactive) | 32.1 µM (inactive) | 17.2 µM (inactive) | 33.9 µM (inactive) | 31 µM (inactive) | 41.5 µM (inactive) | 16.1 µM (inactive) | 35.1 µM (inactive) | 27.6 µM (inactive) | 22 µM (inactive) | 17.3 µM (inactive) | 56.5 µM (inactive) | > 100 µM (inactive) | 87.7 µM (inactive) | 32.1 µM (inactive) | 40.6 µM (inactive) | 35.1 µM (inactive) | 15.3 µM (inactive) | 16.6 µM (inactive) |
| CCC(C)NC(=S)N/N=C(\C)c1ccccn1 (stereo not given) | 0.171 µM (active) | 0.444 µM (active) | < 0.01 µM (active) | 1.28 µM (inactive) | < 0.01 µM (active) | < 0.01 µM (active) | < 0.0211 µM (active) | 0.57 µM (active) | < 0.021 µM (active) | < 0.01 µM (active) | < 0.01 µM (active) | 0.351 µM (active) | 0.215 µM (active) | 1.45 µM (inactive) | 0.452 µM (active) | < 0.01 µM (active) | 2.87 µM (inactive) | 0.126 µM (active) | 0.0733 µM (active) |
| COc1cc(/C=C/C(=O)c2c([O-])on[n+]2-c2ccccc2)ccc1O | 2 µM (inactive) | 2.99 µM (inactive) | 3 µM (inactive) | 2.34 µM (inactive) | 2.19 µM (inactive) | 2.7 µM (inactive) | 2.09 µM (inactive) | 2.32 µM (inactive) | 2.69 µM (inactive) | 6.58 µM (inactive) | 1.77 µM (inactive) | 3.89 µM (inactive) | 7.89 µM (inactive) | 4.82 µM (inactive) | 2.5 µM (inactive) | 1.53 µM (inactive) | 3.29 µM (inactive) | 3.1 µM (inactive) | 3.44 µM (inactive) |
| NCCCCNCCCN1CCOC1=O | > 100 µM (inactive) | > 100 µM (inactive) | > 100 µM (inactive) | > 100 µM (inactive) | > 100 µM (inactive) | > 100 µM (inactive) | > 100 µM (inactive) | > 100 µM (inactive) | > 100 µM (inactive) | > 100 µM (inactive) | > 100 µM (inactive) | > 100 µM (inactive) | > 100 µM (inactive) | > 100 µM (inactive) | > 100 µM (inactive) | > 100 µM (inactive) | 70.8 µM (inactive) | > 100 µM (inactive) | > 100 µM (inactive) |
| CC(C)c1ccc2c(c1)/C(=C1/Nc3ccccc3C1=O)C(=O)N2 | 3.52 µM (inactive) | 18.1 µM (inactive) | 14.3 µM (inactive) | 15.2 µM (inactive) | 11.3 µM (inactive) | 33.7 µM (inactive) | > 100 µM (inactive) | 28.8 µM (inactive) | 24.4 µM (inactive) | 8.85 µM (inactive) | 27.8 µM (inactive) | 15.3 µM (inactive) | 14.8 µM (inactive) | 13 µM (inactive) | 3.4 µM (inactive) | 18.4 µM (inactive) | 5.01 µM (inactive) | 10.6 µM (inactive) | 14.9 µM (inactive) |
| COc1cc2c(/C=C3/C(=O)N(c4ccccc4)c4ccccc43)c(Cl)[nH]c2cc1C | 3.15 µM (inactive) | 2.48 µM (inactive) | 3.89 µM (inactive) | 2.89 µM (inactive) | 2.95 µM (inactive) | 2.84 µM (inactive) | 2.94 µM (inactive) | 1.45 µM (inactive) | 2.58 µM (inactive) | 2.94 µM (inactive) | 1.34 µM (inactive) | 3.47 µM (inactive) | 2.85 µM (inactive) | 4.55 µM (inactive) | 3.71 µM (inactive) | 3.03 µM (inactive) | 3.19 µM (inactive) | 3.24 µM (inactive) | 2.93 µM (inactive) |
